In US20230085307A1, “PYRIDAZINONE COMPOUND AND HERBICIDE” (NISSAN CHEMICAL CORPORATION, priority 2019, published 2023):

Legend:
[1] = test system: blackgrass; assay: Test Example 4: herbicidal effect by soil treatment (Table 19, symbol J); type: in vivo, blackgrass (Alopecurus myosuroides); settings: amount of applied herbicide 320 g/ha
Outline: (§1)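 Pre-emergence style soil spray: seeds under ~1.5 cm sterilized diluvial soil received a uniform coat of emulsion diluted to the predetermined herbicide amount. Greenhouse 25–30° C; readout at week three on previously defined criteria.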

[2] = test system: lambsquarters; assay: Test Example 5: herbicidal effect by foliage application, plastic box (Table 20, symbol O); type: in vivo, lambsquarters (Chenopodium album); settings: 320 g/ha; for O: lambsquarters, herbicidal effect grade: foliage application, three weeks after application
Outline: (§2)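 Plants were sown into sterilized diluvial soil under about 1.5 cm cover and kept in a greenhouse at 25° C. to 30° C. Fourteen days on, foliage received an even spray of the diluted emulsion. Herbicidal or crop effect was judged three weeks afterwards.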

[3] = test system: lambsquarters; assay: Test Example 4: herbicidal effect by soil treatment (Table 19, symbol O); type: in vivo, lambsquarters (Chenopodium album); settings: amount of applied herbicide 320 g/ha
Outline: as §1

[4] = test system: Italian ryegrass; assay: Test Example 5: herbicidal effect by foliage application, plastic box (Table 20, symbol K); type: in vivo, Italian ryegrass (Lolium multiflorum); settings: 320 g/ha; for K: Italian ryegrass, herbicidal effect grade: foliage application, three weeks after application
Outline: as §2

[5] = test system: chickweed; assay: Test Example 5: herbicidal effect by foliage application, plastic box (Table 20, symbol P); type: in vivo, common chickweed (Stellaria media); settings: 320 g/ha; for P: chickweed, herbicidal effect grade: foliage application, three weeks after application
Outline: as §2

[6] = test system: chickweed; assay: Test Example 4: herbicidal effect by soil treatment (Table 19, symbol P); type: in vivo, common chickweed (Stellaria media); settings: amount of applied herbicide 320 g/ha
Outline: as §1

[7] = test system: barnyard grass; assay: Test Example 4: herbicidal effect by soil treatment (Table 19, symbol H); type: in vivo, barnyard grass (Echinochloa crus-galli); settings: amount of applied herbicide 320 g/ha
Outline: as §1

[8] = test system: Japanese bulrush; assay: Test Example 2: herbicidal activity, application during weed generation under submerged conditions (Table 17, symbol B); type: in vivo, Japanese bulrush (Schoenoplectus juncoides); settings: AAH 320 g/ha; application during weed generation, submerged conditions
Outline: (§3)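 Steps: fill Wagner pots with alluvial soil; add water to give 4 cm depth; sow the species mixed; grow under glass at 25–30° C.; at 1–2 leaves apply water-diluted emulsion formulation to the water surface at a fixed herbicide amount; score after 3 weeks.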

[9] = test system: oval-leafed pondweed; assay: Test Example 2: herbicidal activity, application during weed generation under submerged conditions (Table 17, symbol C); type: in vivo, oval-leafed pondweed (Monochoria vaginalis); settings: AAH 320 g/ha; application during weed generation, submerged conditions
Outline: as §3

[10] = test system: redroot pigweed; assay: Test Example 4: herbicidal effect by soil treatment (Table 19, symbol N); type: in vivo, redroot pigweed (Amaranthus retroflexus); settings: amount of applied herbicide 320 g/ha
Outline: as §1

[11] = test system: oval-leafed pondweed; assay: Test Example 1: herbicidal activity, application before weed generation under submerged conditions (Table 16, symbol C); type: in vivo, oval-leafed pondweed (Monochoria vaginalis); settings: amount of applied herbicide 320 g/ha
Outline: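 Alluvial soil was flooded to 4 cm depth, weed seeds were sown mixed and 2.5-leaf rice seedlings were transplanted. On sowing day, the compound's emulsion, diluted in water to a set dose, was applied to the water surface. Plants grew at 25–30 °C and were scored 0–5 after three weeks.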

[12] = test system: persian speedwell; assay: Test Example 5: herbicidal effect by foliage application, plastic box (Table 20, symbol R); type: in vivo, Persian speedwell (Veronica persica); settings: 320 g/ha; for R: persian speedwell, herbicidal effect grade: foliage application, three weeks after application
Outline: as §2

[13] = test system: Chinese sprangletop; assay: Test Example 3: herbicidal effect by foliage application, Wagner pot (Table 18, symbol D); type: in vivo, chinese sprangletop (Leptochloa chinensis); settings: 320 g/ha
Outline: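 Plants were sown in alluvial soil held under 0.1–0.5 cm standing water and grown 14 days in a greenhouse at 25–30 °C. An emulsifiable formulation, water-diluted to the set dose, was then sprayed onto the foliage, and effects were scored three weeks later using previously defined criteria.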

[14] = test system: late watergrass; assay: Test Example 2: herbicidal activity, application during weed generation under submerged conditions (Table 17, symbol A); type: in vivo, late watergrass (Echinochloa oryzicola); settings: AAH 320 g/ha; application during weed generation, submerged conditions
Outline: as §3

[15] = test system: wild oat; assay: Test Example 4: herbicidal effect by soil treatment (Table 19, symbol I); type: in vivo, wild oat (Avena fatua); settings: amount of applied herbicide 320 g/ha
Outline: as §1

[16] = foliage application after 14-day growth, evaluated three weeks after application

Compound | J: blackgrass, herbicidal effect grade [1] | O: lambsquarters, herbicidal effect grade [2] | O: lambsquarters, herbicidal effect grade [3] | K: Italian ryegrass, herbicidal effect grade [4] | P: chickweed, herbicidal effect grade [5] | P: chickweed, herbicidal effect grade [6] | H: barnyard grass, herbicidal effect grade [7] | herbicidal effect rating, B: Japanese bulrush [8] | herbicidal effect rating, C: oval-leafed pondweed [9] | N: redroot pigweed, herbicidal effect grade [10] | Herbicidal effect, C: oval-leafed pondweed [11] | R: persian speedwell, herbicidal effect grade [12] | herbicidal effect on Chinese sprangletop (D) [13] | herbicidal effect rating, A: late watergrass [14] | I: wild oat, herbicidal effect grade [15] | Herbicidal effect by soil treatment, J: blackgrass [1] | Herbicidal effect by soil treatment, O: lambsquarters [3] | Herbicidal effect by soil treatment, P: chickweed [6] | Herbicidal effect by soil treatment, H: barnyard grass [7] | Herbicidal effect by soil treatment, N: redroot pigweed [10] | other results
COc1ccccc1-c1sc2cc(OCC3CC3)ccc2c1-c1c(O)c(C)nn(C)c1=O [3-129] | 4 (Herbicidal rate of 70% or more and less than 90%) | 4 (Herbicidal rate of 70% or more and less than 90%) | 5 (Herbicidal rate of 90% or more (almost completely withered)) | 5 (Herbicidal rate of 90% or more (almost completely withered)) | 5 (Herbicidal rate of 90% or more (almost completely withered)) | 3 (Herbicidal rate of 40% or more and less than 70%) | 4 (Herbicidal rate of 70% or more and less than 90%) | 3 (Herbicidal rate of 40% or more and less than 70%) | 3 (Herbicidal rate of 40% or more and less than 70%) | 5 (Herbicidal rate of 90% or more (almost completely withered)) | 5 (Herbicidal rate of 90% or more (almost completely withered)) | 5 (Herbicidal rate of 90% or more (almost completely withered)) | 4 (Herbicidal rate of 70% or more and less than 90%) | 3 (Herbicidal rate of 40% or more and less than 70%) | 1 (Herbicidal rate of 5% or more and less than 20%) |  |  |  |  |  | 
COc1ccccc1-c1sc2cc(OCC3CC3(F)F)ccc2c1-c1c(O)c(C)nn(C)c1=O (stereo not drawn) [3-131] | 4 (Herbicidal rate of 70% or more and less than 90%) | 5 (Herbicidal rate of 90% or more (almost completely withered)) | 5 (Herbicidal rate of 90% or more (almost completely withered)) | 5 (Herbicidal rate of 90% or more (almost completely withered)) | 5 (Herbicidal rate of 90% or more (almost completely withered)) | 4 (Herbicidal rate of 70% or more and less than 90%) | 2 (Herbicidal rate of 20% or more and less than 40%) | 3 (Herbicidal rate of 40% or more and less than 70%) | 5 (Herbicidal rate of 90% or more (almost completely withered)) | 5 (Herbicidal rate of 90% or more (almost completely withered)) | 5 (Herbicidal rate of 90% or more (almost completely withered)) | 5 (Herbicidal rate of 90% or more (almost completely withered)) | 3 (Herbicidal rate of 40% or more and less than 70%) | 5 (Herbicidal rate of 90% or more (almost completely withered)) | 3 (Herbicidal rate of 40% or more and less than 70%) |  |  |  |  |  | 
CCCC(=O)Oc1c(C)nn(C)c(=O)c1-c1c(-c2ccc(C(F)(F)F)cc2)sc2cc(F)ccc12 [3-140] |  | 4 (Herbicidal rate of 70% or more and less than 90%) |  | 0 (Herbicidal rate of 5% or less (almost no effect)) | 5 (Herbicidal rate of 90% or more (almost completely withered)) |  |  | 3 (Herbicidal rate of 40% or more and less than 70%) | 3 (Herbicidal rate of 40% or more and less than 70%) |  | 3 (Herbicidal rate of 40% or more and less than 70%) | 5 (Herbicidal rate of 90% or more (almost completely withered)) | 4 (Herbicidal rate of 70% or more and less than 90%) | 3 (Herbicidal rate of 40% or more and less than 70%) |  | 0 (Herbicidal rate of 5% or less (almost no effect)) | 3 (Herbicidal rate of 40% or more and less than 70%) | 0 (Herbicidal rate of 5% or less (almost no effect)) | 0 (Herbicidal rate of 5% or less (almost no effect)) | 4 (Herbicidal rate of 70% or more and less than 90%) | Herbicidal effect by soil treatment, I: wild oat [15]: 0 (Herbicidal rate of 5% or less (almost no effect))
CCCC(=O)Oc1c(C)nn(C)c(=O)c1-c1c(-c2ccc(OC(F)(F)F)cc2)sc2cc(F)ccc12 [3-144] |  |  |  |  |  |  |  | 3 (Herbicidal rate of 40% or more and less than 70%) | 2 (Herbicidal rate of 20% or more and less than 40%) |  | 0 (Herbicidal rate of 5% or less (almost no effect)) |  | 4 (Herbicidal rate of 70% or more and less than 90%) | 2 (Herbicidal rate of 20% or more and less than 40%) |  | 0 (Herbicidal rate of 5% or less (almost no effect)) | 3 (Herbicidal rate of 40% or more and less than 70%) | 0 (Herbicidal rate of 5% or less (almost no effect)) | 3 (Herbicidal rate of 40% or more and less than 70%) | 4 (Herbicidal rate of 70% or more and less than 90%) | herbicidal effect on O: lambsquarters (evaluation grade 0-5) [2, 16]: 5 (Herbicidal rate of 90% or more (almost completely withered)); herbicidal effect on K: Italian ryegrass (evaluation grade 0-5) [4, 16]: 0 (Herbicidal rate of 5% or less (almost no effect)); herbicidal effect on P: chickweed (evaluation grade 0-5) [5, 16]: 5 (Herbicidal rate of 90% or more (almost completely withered)); herbicidal effect on R: persian speedwell (evaluation grade 0-5) [12, 16]: 5 (Herbicidal rate of 90% or more (almost completely withered)); Herbicidal effect by soil treatment, I: wild oat [15]: 0 (Herbicidal rate of 5% or less (almost no effect))
